The values below come from patent publication US20210008161A1, “METHODS AND COMPOSITIONS FOR IMPROVED HOMOLOGY DIRECTED REPAIR” (CRISPR THERAPEUTICS AG, priority 2019, published 2021).

The experiment relates to HEK293 T cells. Put plainly: BFP to GFP fluorescent reporter assay of HDR efficiency (AAVS1 locus). It is filed as cell-based, human. The method, then:
An in vitro assay was conducted to determine the ability of various inhibitors and enhancers to improve the efficiency of HDR repair in HEK293 T cells. Specifically, a fluorescent reporter-based screening approach was developed to identify molecules that enhance gene-editing by HDR. A reporter system was generated in HEK293 T cells comprising a genomic AAVS1 locus that encoded either a blue fluorescent protein (BFP) or a green fluorescent protein (GFP) within the AAVS1 locus. A gene encoding BFP can be converted to a gene encoding GFP by substitution of cytosine at position 199 to uridine (e.g., a C to U transition at position 199). By introducing a DSB within the BFP gene using a CRISPR/Cas9 gene-editing system, a homology donor DNA encoding the nucleotide substitution can be used to edit the BFP gene to a GFP gene by HDR repair. Thus, a gene edit that induces a C to U transition at position 199 results in a change in cellular fluorescence. A change in the fluorescence of the cell measured by flow cytometry can be used to quantify efficiency of HDR repair. Additionally, the reverse gene edit can be performed for an AAVS1 locus encoding a GFP gene, wherein a GFP can be converted to BFP by substitution of uridine at position 199 to cytosine.
To create the reporter system, an AAV-based homology donor DNA encoding either BFP or GFP was created. The AAV-BFP or AAV-GFP donor was flanked by homology arms that were 1000 base pairs in length and expression of BFP or GFP was driven by the MND promoter (e.g., a synthetic promoter that contains the U3 region of a modified Moloney murine leukemia virus long term terminal repeat with myeloproliferative sarcoma virus enhancer and deleted negative control region, SEQ ID NO: 58). The viral DNA was packaged into capsids of adeno-associated virus serotype 6 (AAV6) vector. Either the BFP or GFP donor was introduced using the AAV6 vector into the AAVS1 locus in HEK293 T cells by homologous recombination using CRISPR-Cas9 as follows: purified Cas9 protein was complexed with two different single gRNAs (sgRNAs) targeting the AAVS1 locus at SEQ ID NO: 3 (spacer sequence identified by SEQ ID NO: 4; gRNA obtained from Maxcyte) or SEQ ID NO: 5 (spacer sequence identified by SEQ ID NO: 6; gRNA obtained from Thermo Fisher). Cas9 protein used in the Exemplary section provided herein refers to Cas9 polypeptide derived from S. pyogenes (SpCas9), unless indicated otherwise.
The Cas9-sgRNA complex was electroporated into the HEK293 T cells using the Lonza Nucleofector program CM-130. Approximately, 2 hours after electroporation, the cells were infected with various viral doses of AAV6 encoding a BFP (SEQ ID NO: 44) or GFP homology donor (SEQ ID NO: 47). One week later, cells were analyzed by flow cytometry to verify integration and expression of BFP or GFP in the AAVS1 locus. HEK293 T cells expressing BFP or GFP were sorted into single cells in 96-well plates. After ˜2 weeks of growth, DNA extracted from individual cells was analyzed for precise integration of the respective BFP or GFP gene into the AAVS1 locus by long-range PCR. This PCR analysis allowed for determination of whether the BFP/GFP gene was integrated in one or both alleles of the AAVS1 locus.
To introduce a gene edit that converts BFP to GFP, cells were electroporated with ribonucleoprotein (RNP) comprised of Cas9 and sgRNA that targets the BFP gene encoded in the AAVS1 locus. The sgRNA targeted a sequence in the BFP gene identified by SEQ ID NO: 7 (sgRNA spacer sequence identified by SEQ ID NO: 8). The sgRNA were prepared using a standard sgRNA cassette specific to SpCas9, as indicated by SEQ ID NO: 2 (wherein a, c, g, u represent 2′ O-methyl phosphorothioate nucleotides; s represents phosphorothioate nucleotides; and A, C, G, U, N represent canonical RNA nucleotides). The gRNAs used in the Exemplary section provided herein were sgRNAs prepared with the SpCas9 sgRNA cassette unless indicated otherwise. […]

Setting [1] is: 1.25 μM SCR7 or 10 μM RS-1, ssODN1-4, relative to DMSO alone, FIG. 1A.

Regarding `O=c1cc(N2CCOCC2)oc2c(-c3cccc4c3sc3ccccc34)cccc12` [Nu7441], where the note is “2.5 μM Nu7441, each of ssODN1-4, FIG. 1A”, the “fold higher HDR efficiency” value is “approximately 3 fold”. Besides, the “fold higher HDR efficiency, high vs low concentration” value (2.5 μM vs 0.6 μM, FIG. 1B, 1C) was “approximately 1.5 fold”. Also, the “HDR efficiency at higher concentrations” value (concentrations higher than 2.5 μM) was “no further improvement”. Besides, the “improvement in HDR efficiency, dose dependence” value (varied doses, FIG. 1B) is recorded as “dose-dependent”.
Consider `O=C(Nc1ccc(Br)cc1)c1ccc(Br)c(S(=O)(=O)NCc2ccccc2)c1` [RS-1], for which, under setting [1], the HDR efficiency entry was “no improvement”.
The same measure, in the same setting: the entry for `O=c1[nH]c(=S)[nH]c(N=Cc2ccccc2)c1N=Cc1ccccc1` [SCR7] is “no improvement”.
For “i53: polypeptide inhibitor of 53BP1 (SEQ ID NO: 70), introduced as an mRNA-encoded protein (ORF SEQ ID NO: 69)”, the HDR efficiency result (different doses of mRNA encoding i53, ssODN Hn-91-61 and Ht-39-88, FIG. 1D) is given as “increased”.
